The results in this text go back to article PMC4796657, “Functional identification of SLC43A3 as an equilibrative nucleobase transporter involved in purine salvage in mammals” (Scientific Reports, 2015).

Assay [1] addresses T1, SLC43A3 (equilibrative nucleobase transporter 1, ENBT1) (Homo sapiens, UniProt Q8NBI5).
T1 sequence (Q8NBI5 1-491): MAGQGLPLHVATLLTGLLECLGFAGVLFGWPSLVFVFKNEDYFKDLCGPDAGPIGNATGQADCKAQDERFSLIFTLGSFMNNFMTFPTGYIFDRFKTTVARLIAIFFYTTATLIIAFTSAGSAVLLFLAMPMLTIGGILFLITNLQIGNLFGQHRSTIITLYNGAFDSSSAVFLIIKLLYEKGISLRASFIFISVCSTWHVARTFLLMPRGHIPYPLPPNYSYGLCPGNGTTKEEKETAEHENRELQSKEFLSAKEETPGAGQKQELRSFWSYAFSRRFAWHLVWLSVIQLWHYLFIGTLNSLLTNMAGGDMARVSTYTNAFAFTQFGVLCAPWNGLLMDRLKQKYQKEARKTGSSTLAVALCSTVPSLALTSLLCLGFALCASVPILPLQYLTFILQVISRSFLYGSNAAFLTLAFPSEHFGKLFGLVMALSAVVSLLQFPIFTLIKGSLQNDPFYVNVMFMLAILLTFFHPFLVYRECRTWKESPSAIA
Nature of the assay: inhibition of ENBT1-specific [3H]adenine uptake, about […] at […]. It is filed as cell-based. Details: full length, 491 amino acid residues, stably expressed in MDCKII cells. The following applies: read-out: % inhibition at 200 μM.

In assay [2] the target is T1, SLC43A3 (equilibrative nucleobase transporter 1, ENBT1). Kind of assay: cell-based. The following applies: MDCK-II; [3H]adenine 5 nM, pH 7.4, 22 C, 40 s; read-out: Uptake rate (% of control). Details: full length, 491 amino acid residues, stably expressed in MDCKII cells; species or system MDCKII stably expressing ENBT1; inhibition of ENBT1-specific [3H]adenine (5 nM) uptake, 40 s, 22 C, mock-subtracted, scintillation counting. The procedure:
MDCKII cells stably expressing ENBT1 (1.5 × 10^5 cells/well initially) were grown on 24-well plates for 72 h. The cells in each well were preincubated in 0.25 ml of substrate-free uptake buffer (140 mM NaCl, 5 mM KCl, 0.4 mM KH2PO4, 0.8 mM MgSO4, 1.0 mM CaCl2, 25 mM glucose, and 10 mM HEPES, pH 7.4) for 5 min, unless otherwise indicated. Uptake assays were started by replacing the substrate-free uptake buffer for preincubation with one containing the radioisotope-labeled substrate (0.25 ml). All of the procedures were conducted at 22 °C or 37 °C. Assays were stopped by addition of ice-cold substrate-free uptake buffer (2 ml), and the cells were washed two times with 2 ml of the same buffer. The cells were solubilized in 0.5 ml of 0.2 M NaOH solution containing 0.5% SDS at room temperature for 1 h, and the associated radioactivity was measured by [compound left out] scintillation counting. Cellular protein content was determined by the method of Lowry et al.[28] using bovine serum albumin as the standard. Uptake assays were also conducted in mock cells, which were transfected with empty pCI-neo vector, to estimate nonspecific uptake. To further explore the substrate specificity of ENBT1, we examined the effect of various compounds (10 μM for decynium-22 and 200 μM for the others) on the ENBT1-mediated uptake of [^3H]adenine in SLC43A3 cells (Fig. 2D). […] Because these two molecules were transported by SLC43A3 minimally (Fig. 2A), they are likely to be recognized as very poor substrates with affinities extremely low to act as competitive inhibitors. […] We also examined the effect of various amino acids (5 mM), as ENBT1 is a member of the amino acid transporter family; however, none of them affected the adenine uptake activity of SLC43A3 cells (see Supplementary Table S1 online), supporting a previo

Assay [3] has the same target. Kind of assay: cell-based.
Assay [4] shares this target. Nature of the assay: inhibition of ENBT1-specific [3H]adenine uptake at […]. The arrangement: full length, 491 amino acid residues, stably expressed in MDCKII cells. Type of assay: cell-based.
For assay [5] the target is unchanged. Nature of the assay: inhibition of ENBT1-mediated [3H]hypoxanthine uptake; radiolabeled uptake (apparent Km […]). Type of assay: cell-based. Details: full length, 491 amino acid residues, stably expressed in MDCKII cells.
Assay [6] shares this target. Nature of the assay: inhibition of ENBT1-mediated [3H]adenine uptake; radiolabeled uptake (apparent Km […]). Type of assay: cell-based. The arrangement: full length, 491 amino acid residues, stably expressed in MDCKII cells.

What is called inhibition is the change of the read-out against control, counted positive when it falls. Consider `O=[N+]([O-])c1ccc(CSc2ncnc3c2ncn3C2OC(CO)C(O)C2O)cc1` (centres unmarked) [nitrobenzylthioinosine], for which the inhibition at 200 µM in assay [1] was approximately 40%. `N[C@@H](CS)C(=O)O` [Cysteine]: the remaining activity at 5000 µM in assay [2] amounted to 104 ± 0.8%. On the same count and under the same terms, for `C[C@@H](O)[C@H](N)C(=O)O` [Threonine] the value was 99.7 ± 0.7%; for `N=C(N)NCCC[C@H](N)C(=O)O` [Arginine], 95.8 ± 1.7%; for `O=C(O)[C@@H]1CCCN1` [Proline], 103.4 ± 1%.

For orientation: IC50 means the point on the concentration scale where inhibition reaches its midpoint. With `O=c1[nH]cnc2nc[nH]c12` [hypoxanthine], the IC50 in assay [3] was determined as 350 µM.

`NC(=O)CC[C@H](N)C(=O)O` [Glutamine]: the remaining activity at 5000 µM in assay [2] was found to be 105 ± 1.3%. For `Nc1nc2nc[nH]c2c(=S)[nH]1` [6-thioguanine], in assay [4], the “inhibition of ENBT1-specific [3H]adenine uptake at 200 uM” value (shortened to “inhibition of ENBT1-specific”) was “purine and its several analogs, such as 6-thioguanine and mercaptopurine, showed inhibitory activities, suggesting that they are also substrates”. With `NCCCC[C@H](N)C(=O)O` [Lysine], the remaining activity at 5000 µM in assay [2] came out at 96.6 ± 1.2%.

For `N[C@@H](Cc1c[nH]c2ccccc12)C(=O)O` [Tryptophan], the remaining activity at 5000 µM in assay [2] amounted to 95.6 ± 1.8%. Still for that read-out and setting: with `N[C@@H](CC(=O)O)C(=O)O` [Aspartate] the figure was 99.9 ± 1.3%; with `CC[C@H](C)[C@H](N)C(=O)O` [Isoleucine], 100 ± 1.3%. The same measure, in the same setting: for `CC(C)C[C@H](N)C(=O)O` [Leucine] the value was 94 ± 2.5%; for `NC(=O)C[C@H](N)C(=O)O` [Asparagine], 103 ± 2.7%. Consider `S=c1[nH]cnc2nc[nH]c12` [mercaptopurine], for which, in assay [4], the “inhibition of ENBT1-specific” value was “purine and its several analogs, such as 6-thioguanine and mercaptopurine, showed inhibitory activities, suggesting that they are also substrates”. As for `Nc1ncnc2nc[nH]c12` [adenine], the IC50 in assay [5] turned out to be 13 µM. Turning to `CSCC[C@H](N)C(=O)O` [Methionine], the remaining activity at 5000 µM in assay [2] turned out to be 95.8 ± 1.4%. Still for that read-out and setting: with `N[C@@H](CCC(=O)O)C(=O)O` [Glutamate] the figure was 103 ± 1.6%; with `N[C@@H](CO)C(=O)O` [Serine], 105 ± 2.2%. The same measure, in the same setting: with `N[C@@H](Cc1ccc(O)cc1)C(=O)O` [Tyrosine] the figure was 105.7 ± 1%. On the same count and under the same terms, for `N[C@@H](Cc1c[nH]cn1)C(=O)O` [Histidine] the value was 101 ± 1.8%. Turning to `Nc1nc2nc[nH]c2c(=O)[nH]1` [guanine], the IC50 in assay [6] is 70 µM. Consider `CC(C)[C@H](N)C(=O)O` [Valine], for which, in assay [2], the remaining activity at 5000 µM worked out at 101 ± 1.6%. For `N[C@@H](Cc1ccccc1)C(=O)O` [Phenylalanine], the remaining activity at 5000 µM in assay [2] was 98.7 ± 1.1%. Consider `c1ncc2nc[nH]c2n1` [purine], for which the “inhibition of ENBT1-specific” value in assay [4] is “purine and its several analogs, such as 6-thioguanine and mercaptopurine, showed inhibitory activities, suggesting that they are also substrates”. Regarding `C[C@H](N)C(=O)O` [Alanine], the remaining activity at 5000 µM in assay [2] is 103 ± 4%.
